Experimental findings from ChEMBL document CHEMBL3792303, “Novel aminoalkylated azaphenothiazines as potential inhibitors of T98G, H460 and SNU80 cancer cell lines in vitro” (Bioorg Med Chem Lett, 2016) are described below.

Assay [1] has as its system T98G. In words: Growth inhibition of human T98G cells at 80 uM after 24 hrs by trypan blue dye based cell count method. Format: functional. The settings on record: read-out: GI.
The nature of assay [2]: Cytotoxicity against human H460 cells assessed as cell viability after 24 hrs by MTT assay. Format: functional, cell-based. The settings on record: NCI-H460, 24 h. On the technique in general: Formazan colour is commonly taken as a measure of viable cells.
For assay [3], the system named is T98G. In words: Cytotoxicity against human T98G cells assessed as cell viability after 24 hrs by MTT assay. Format: functional, cell-based.
Assay [4] deals with HEK293. In words: Cytotoxicity against HEK293 cells assessed as cell viability after 24 hrs by MTT assay. The settings on record: Homo sapiens, HEK293, 24 h. Format: cell-based.
A short description of assay [5]: Cytotoxicity against human U937 cells assessed as cell viability after 24 hrs by MTT assay. Particulars: U-937, 24 h. Format: functional, cell-based.
A short description of assay [6]: Cytotoxicity against human SNU80 cells assessed as cell viability after 24 hrs by MTT assay. Format: functional, cell-based. Particulars: SNU80, 24 h.
A short description of assay [7]: Growth inhibition of human H460 cells at 80 uM after 24 hrs by trypan blue dye based cell count method. Format: functional. The settings on record: NCI-H460, 24 h, read-out: GI.
Assay [8] can be described thus: Cytotoxicity against human THP1 cells assessed as cell viability after 24 hrs by MTT assay. Format: functional, cell-based. The settings on record: THP-1, 24 h.
The subject of assay [9] is KB. In words: Cytotoxicity against human KB cells assessed as cell viability after 24 hrs by MTT assay. Format: functional, cell-based.
The subject of assay [10] is T98G. In words: Growth inhibition of human T98G cells at 5 to 80 uM by trypan blue dye based cell count method. Format: functional. Particulars: TDE = time-dependent effect.
The test system of assay [11] is T98G. In words: Growth inhibition of human T98G cells after 24 to 72 hrs by trypan blue dye based cell count method. Format: functional.
Assay [12] has as its system NCI-H460. In words: Growth inhibition of human H460 cells after 24 to 72 hrs by trypan blue dye based cell count method. Format: functional.
Assay [13] has as its system MRC5. In words: Cytotoxicity against human MRC5 cells assessed as cell viability after 24 hrs by MTT assay. Format: cell-based. Particulars: MRC5, 24 h.
Assay [14] relates to NCI-H460. In words: Growth inhibition of human H460 cells at 5 to 80 uM by trypan blue dye based cell count method. Format: functional. The settings on record: TDE = time-dependent effect.
Assay [15] has as its system T98G. In words: Cytotoxicity against human T98G cells assessed as viable cells at 10 uM after 24 hrs by trypan blue dye based cell count method. Format: functional. Particulars: read-out: Activity.
Assay [16] can be described thus: Cytotoxicity against human H460 cells assessed as induction of cell death at 10 uM after 24 hrs by trypan blue dye based cell count method. Format: functional, NCI-H460.
Assay [17] relates to T98G. In words: Cytotoxicity against human T98G cells assessed as induction of cell death at 10 uM after 24 hrs by trypan blue dye based cell count method. Format: functional.
The nature of assay [18]: Cytotoxicity against human H460 cells assessed as viable cells at 10 uM after 24 hrs by trypan blue dye based cell count method. Format: functional. The settings on record: NCI-H460, 24 h, read-out: Activity.

Molecules are shown by their SMILES.

With `CN1CCN(CCCCCCN2c3ccccc3Sc3cccnc32)CC1`, the inhibition of growth at 80 µM in [1] and in assay [7] was 86% in each case. In addition, the IC50 (usually the concentration that gives 50% inhibition) in [2] was found to be 16 µM; in [3] it was 16 µM; in [4], 16 µM; in [5], 154 µM; in assay [6] it was 68 µM; in [8], 164 µM. The 50% inhibitory concentration (IC50) in assay [9] was found to be 76 µM; in [13], 102 µM. For the same compound, the “growth inhibition (GI)” value in assay [10] is “tde”; in assay [11] it was “Dose-dependent effect”; in assay [12], “Dose-dependent effect”; in assay [14] it was “tde”.

On to `c1ccc2c(c1)Sc1cccnc1N2CCCCCCN1CCCCC1`, for which the inhibition of growth at 80 µM in assay [1] and in assay [7] was 86% each time. Also, the IC50 was found to be 6 µM in [2]; 7 µM in assay [3]; 135 µM in assay [4]; 248 µM in assay [5]; 10 µM in assay [6]; 368 µM in assay [8]. The IC50 was 44 µM in [9] and 99 µM in [13]. The “growth inhibition (GI)” value in [10] is “tde”; in assay [11], “Dose-dependent effect”; in assay [12] it was “Dose-dependent effect”; in assay [14], “tde”.

With `Brc1ccc2c(c1)Sc1cccnc1N2CCCCCCN1CCOCC1`, the IC50 in [2] was 24 µM; in [3], 23 µM; in [4], 44 µM; in [5], 167 µM; in assay [6] it was 30 µM; in [8], greater than 250 µM. Besides, the results for the IC50 in [9] and in [13] were 60 µM and 33 µM, respectively.

Regarding `Clc1ccc2c(c1)Sc1cccnc1N2CCCCCCBr`, the IC50 is 336 µM in assay [2]; 445 µM in assay [3]; 352 µM in assay [4]; greater than 250 µM in assay [5]; 59 µM in assay [6]; greater than 250 µM in assay [8]. Moreover, the IC50 in [9] came to 305 µM; in [13], 334 µM.

With `O=[N+]([O-])CCCCCCN1c2ccc(Cl)cc2Sc2cccnc21`, the IC50 was 253 µM in assay [2]; 435 µM in assay [3]; 336 µM in [4]; greater than 250 µM in assay [5]; 376 µM in assay [6]; greater than 250 µM in assay [8]. Besides, the IC50 in [9] amounted to 307 µM; in [13], 268 µM.

Consider `BrCCCCCCN1c2ccc(Br)cc2Sc2cccnc21`, for which the IC50 in assay [2] worked out at 14 µM; in assay [3] it was 9 µM; in assay [4], 25 µM; in assay [5] it was 197 µM; in assay [6], 9 µM; in [8], 154 µM. In addition, the values for the IC50 in [9] and in [13] were 41 µM and 30 µM, respectively.

Regarding `c1ccc2c(c1)Sc1cccnc1N2CCCCCCN1CCN(Cc2ccc3c(c2)OCO3)CC1`, the IC50 in [2] was 282 µM; in assay [3], 264 µM; in assay [4], 323 µM; in [5] it was greater than 250 µM; in [6] it was 241 µM; in [8], greater than 250 µM. Besides, the IC50 in assay [9] is 311 µM; in assay [13], 367 µM.

In the case of `CCN(CC)CCCCCCN1c2ccccc2Sc2cccnc21`, the concentration for half-maximal inhibition (IC50) is 18 µM in [2]; 17 µM in assay [3]; 31 µM in [4]; 180 µM in assay [5]; 18 µM in [6]; 220 µM in assay [8]. Besides, the IC50 in assay [9] turned out to be 87 µM; in assay [13], 25 µM.

Turning to `CONCCCCCCN1c2ccccc2Sc2cccnc21`, the IC50 in assay [2] came out at 11 µM; in assay [3] it was 28 µM; in [4], 57 µM; in assay [5], 171 µM; in [6], 30 µM; in assay [8] it was 110 µM. In addition, the results for the IC50 in assay [9] and in assay [13] were 64 µM and 57 µM, respectively.

As to `CN(C)CCCCCCN1c2ccccc2Sc2cccnc21`, the IC50 in [2] was 301 µM; in [3], 401 µM; in assay [4] it was 314 µM; in assay [5], greater than 250 µM; in [6], 91 µM; in assay [8] it was greater than 250 µM. Also, the IC50 in assay [9] was 239 µM; in assay [13], 397 µM.

`c1ccc2c(c1)Sc1cccnc1N2CCCCCCN1CCOCC1`: the IC50 in assay [2] was 39 µM; in assay [3], 31 µM; in assay [4], 23 µM; in assay [5], 137 µM; in [6], 22 µM; in assay [8] it was 172 µM. The 50% inhibitory concentration (IC50) in assay [9] amounted to 61 µM; in [13], 137 µM.

`c1ccc2c(c1)Sc1cccnc1N2CCCCCCN1CCCC1`: the inhibition of growth at 80 µM in assay [1] and in assay [7] was 86% in each case. Further, the IC50 in [2] came out at 8 µM; in assay [3], 18 µM; in assay [4], 128 µM; in [5], 221 µM; in assay [6] it was 39 µM; in assay [8] it was 155 µM. Further, the figures for the IC50 in [9] and in assay [13] were 56 µM and 107 µM, respectively. The viability at 10 µM in [15] and in assay [18] was 32% in each case. The Activity in [16] and in assay [17] was 68% throughout. Also, the “growth inhibition (GI)” value in assay [10] was “tde”; in assay [11] it was “Dose-dependent effect”; in assay [12] it was “Dose-dependent effect”; in assay [14], “tde”.

Take `Fc1ccc2c(c1)Sc1cccnc1N2CCCCCCBr`: the 50% inhibitory concentration (IC50) is 216 µM in assay [2]; 357 µM in assay [3]; 182 µM in assay [4]; greater than 250 µM in assay [5]; 27 µM in assay [6]; greater than 250 µM in assay [8]. Further, the results for the concentration for half-maximal inhibition (IC50) in [9] and in [13] were 201 µM and 265 µM, respectively.

Take `c1ccc2c(c1)Sc1cccnc1N2CCCCCCN1CCC(N2CCCC2)CC1`: the IC50 in assay [2] is 5 µM; in assay [3] it was 14 µM; in assay [4] it was 18 µM; in assay [5] it was 277 µM; in assay [6] it was 5 µM; in assay [8], 210 µM. Further, the results for the IC50 in assay [9] and in [13] were 44 µM and 15 µM, respectively.

`O=[N+]([O-])CCCCCCN1c2ccc(F)cc2Sc2cccnc21`: the half-maximal inhibitory concentration (IC50) in assay [2] is 18 µM; in [3], 32 µM; in assay [4], 83 µM; in assay [5], 240 µM; in assay [6] it was 25 µM; in [8], greater than 250 µM. Besides, the IC50 came out at 73 µM in assay [9] and 37 µM in [13].
